From patent US20260125382A1, “COMPOUNDS FOR INHIBITING OR DEGRADING CDK2 AND/OR CDK9 AND MEDICINAL USE THEREOF” (KOREA RESEARCH INSTITUTE OF CHEMICAL TECHNOLOGY, priority 2022, published 2026)

Tests used:
CDK2 = target: T1, CDK2 (Homo sapiens, UniProt P24941); assay: CDK protein degradation activity (Western blotting), CDK2; assay type: cell-based; conditions: MDA-MB-231 cells, 16 hours, Western blot
T1 construct: endogenous in cells; host or cells: MDA-MB-231
In short: (§1)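 MDA-MB-231 cells treated 16 h with compound at 100 nM, 1 μM or 10 μM, with DMSO as control. Lysates run on SDS-PAGE and immunoblotted for CDK2, CDK9 and tubulin; band levels quantified by densitometry.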

CDK9 = target: T2, CDK9 (Homo sapiens, UniProt P50750); assay: CDK protein degradation activity (Western blotting), CDK9; assay type: cell-based; conditions: MDA-MB-231 cells, 16 hours, Western blot
T2 construct: endogenous in cells; host or cells: MDA-MB-231
In short: as §1

T2 sequence (P50750 whole entry): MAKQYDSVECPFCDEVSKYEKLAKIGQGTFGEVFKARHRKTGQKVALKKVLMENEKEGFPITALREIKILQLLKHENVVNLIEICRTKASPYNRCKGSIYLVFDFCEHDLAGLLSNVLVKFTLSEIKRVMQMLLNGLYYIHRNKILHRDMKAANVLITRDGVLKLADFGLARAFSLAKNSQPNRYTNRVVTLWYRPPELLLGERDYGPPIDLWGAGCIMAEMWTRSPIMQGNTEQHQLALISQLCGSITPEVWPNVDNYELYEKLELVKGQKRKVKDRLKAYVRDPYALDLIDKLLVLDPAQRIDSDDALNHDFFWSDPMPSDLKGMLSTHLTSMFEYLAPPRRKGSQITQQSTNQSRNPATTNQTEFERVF

| SMILES | Enzyme degradation CDK2 (% remaining) @ 0.1 μM (CDK2) | Enzyme degradation CDK2 (% remaining) @ 1 μM (CDK2) | Enzyme degradation CDK2 (% remaining) @ 10 μM (CDK2) | Enzyme degradation CDK9 (% remaining) @ 0.1 μM (CDK9) | Enzyme degradation CDK9 (% remaining) @ 1 μM (CDK9) | Enzyme degradation CDK9 (% remaining) @ 10 μM (CDK9) |
| --- | --- | --- | --- | --- | --- | --- |
| Cc1cccc(C(=O)N[C@H]2C[C@@H](n3cnc4c(NCc5ccc(OCC6CCN(C(=O)COc7ccc8c(c7)C(=O)N([C@H]7CCC(=O)NC7=O)C8=O)CC6)cc5)ncnc43)C2)n1 [Compound 106, N-((1s,3s)-3-(6-((4-((1-(2-((2-(2,6-dioxopiperidin-3-yl)-1,3-dioxoisoindolin-5-yl)oxy)acetyl)piperidin-4-yl)methoxy)benzyl)amino)-9H-purin-9-yl)cyclobutyl)-6-methylpicolinamide] | 70% | 50% | 50% | 70% | 0% | 0% |
| Cc1cccc(C(=O)NC2CC(n3cnc4c(NCc5ccc(OCC6CCN(C(=O)COc7cccc8c7C(=O)N([C@H]7CCC(=O)NC7=O)C8=O)CC6)cc5)ncnc43)C2)n1 (stereo partly drawn) [Compound 107, N-((1s,3s)-3-(6-((4-((1-(2-((2-(2,6-dioxopiperidin-3-yl)-1,3-dioxoisoindolin-4-yl)oxy)acetyl)piperidin-4-yl)methoxy)benzyl)amino)-9H-purin-9-yl)cyclobutyl)-6-methylpicolinamide] | 60% | 50% | 100% | 90% | 20% | 0% |
| Cc1cccc(C(=O)N[C@H]2C[C@@H](n3cnc4c(NCc5ccc(OCC6CCN(C(=O)CNc7ccc8c(c7)C(=O)N([C@H]7CCC(=O)NC7=O)C8=O)CC6)cc5)ncnc43)C2)n1 [Compound 108, N-((1s,3s)-3-(6-((4-((1-((2-(2,6-dioxopiperidin-3-yl)-1,3-dioxoisoindolin-5-yl)glycyl)piperidin-4-yl)methoxy)benzyl)amino)-9H-purin-9-yl)cyclobutyl)-6-methylpicolinamide] | 30% | 30% | 60% | 0/0/0% | 0/0/0% | 0/0/0% |

The next lines start with the values.

| Enzyme degradation CDK2 (% remaining) @ 0.1 μM (CDK2) | Enzyme degradation CDK2 (% remaining) @ 1 μM (CDK2) | Enzyme degradation CDK2 (% remaining) @ 10 μM (CDK2) | Enzyme degradation CDK9 (% remaining) @ 0.1 μM (CDK9) | Enzyme degradation CDK9 (% remaining) @ 1 μM (CDK9) | Enzyme degradation CDK9 (% remaining) @ 10 μM (CDK9) | SMILES |
| --- | --- | --- | --- | --- | --- | --- |
| 100% | 70% | 70% | 90% | 20% | 10% | Cc1cccc(C(=O)N[C@H]2C[C@@H](n3cnc4c(NCc5cccc(OCCCN6CCN(C(=O)CNc7ccc8c(c7)C(=O)N([C@H]7CCC(=O)NC7=O)C8=O)CC6)c5)ncnc43)C2)n1 [Compound 102, N-((1s,3s)-3-(6-((3-(3-(4-((2-(2,6-dioxopiperidin-3-yl)-1,3-dioxoisoindolin-5-yl)glycyl)piperazin-1-yl)propoxy)benzyl)amino)-9H-purin-9-yl)cyclobutyl)-6-methylpicolinamide] |
| 40% | 40% | 60% | 30% | 10% | 10% | Cc1cccc(C(=O)N[C@H]2C[C@@H](n3cnc4c(NCc5cccc(OCCCN6CCN(C(=O)CNc7cccc8c7C(=O)N([C@H]7CCC(=O)NC7=O)C8=O)CC6)c5)ncnc43)C2)n1 [Compound 103, N-((1s,3s)-3-(6-((3-(3-(4-((2-(2,6-dioxopiperidin-3-yl)-1,3-dioxoisoindolin-4-yl)glycyl)piperazin-1-yl)propoxy)benzyl)amino)-9H-purin-9-yl)cyclobutyl)-6-methylpicolinamide] |
